We go through 5 compounds from ChEMBL document CHEMBL4665744, “Diverse Types of Diterpenoids with an Aromatized C Ring from the Twigs of Podocarpus imbricatus” (J Nat Prod, 2020).

pIC50: −log10 of the molar value. Active and inactive are the calls of the source. The rule behind the calls is not given here.

Data set [1] can be described thus: Cytotoxicity activity against African green monkey Vero cells assessed as reduction in cell viability by MTT assay. Format: cell-based. The conditions noted are these: chlorocebus sabaeus. Background: Formazan colour is commonly taken as a measure of viable cells.
Another data set deals with Zika virus. Description: Antiviral activity against Zika virus. Format: functional, organism-based.

Broadly, the CC50 is the concentration that lowers cell viability or growth by half. For the compound `COc1c(C)c2c(c(O)c1C/C=C(\C)CCC(=O)O)C(=O)OC2` [MYCOPHENOLIC ACID], the CC50 in data set [1] was determined as 18.7 µM. As usually defined, the pIC50 is −log10 of the IC50, conventionally taken in molar units. In the data set on Zika virus, `CC(C)c1cc2c(cc1O)[C@@H](O)[C@@H](O)[C@H]1[C@](C)(CO)CCC[C@]21C` showed a pIC50 of 5.60. Regarding `C[C@H](CO)c1cc2c(cc1O)[C@@]1(C)CCC[C@](C)(C(=O)O)[C@@H]1CC2`, the outcome in the data set with Zika virus was inactive. Regarding `CC(C)c1cc2c(cc1O)C[C@@H](O)[C@H]1[C@](C)(CO)CCC[C@]21C`, in the data set with Zika virus, the result was inactive. Regarding `CC(C)c1c(O)ccc2c1CC[C@H]1C(C)(C)CC[C@@H](O)[C@]21C`, the result in the data set on Zika virus was inactive.
